From patent US8399689B2, “Chrysophaentin antimicrobial compounds that inhibit FtsZ protein” (The United States of America, as represented by the …, priority 2010, dated 2013)
In brackets after ≈: the same amount, converted by molar mass. Entries after “also recorded” stand apart in the source; their conditions may differ.

Columns and labels:
[1] = system: Enterococcus faecium (EF, ATCC 49032); experiment: Agar disk diffusion assay, E. faecium; type: cell-based
Experimental: (§1) Compounds 1-8 were tested for antimicrobial activity against Staphylococcus aureus (SA, ATCC 25923), methicillin-resistant S. aureus (MRSA, ATCC BAA-41), multidrug-resistant S. aureus (MDRSA, ATCC BAA-44), Enterococcus faecium (EF, ATCC 49032), vancomycin-resistant E. Faecium (VRE, ATCC 700221), and Bacillus subtilis (ATCC 49343) using a modified disk diffusion assay and microbroth liquid dilution assays. For disk diffusion assays, agar plates seeded with suspensions of bacteria were prepared by adding 500 μL of a 24 h culture of bacteria to 100 mL of autoclaved Mueller Hinton II agar and cooled to 55° C. Seeded liquid agar (10 mL) was transferred immediately to square Petri dishes and allowed to cool for 1 h. Control drugs used for each microorganism included kanamycin (50 μg) for S. aureus, and nitrofurantoin (25 μg) for MRSA. Following incubation at 37° C. for 18 h, zones of inhibition were measured. MICso values for compounds 1 and 4-8 were determined using a microbroth dilution assay outlined in the Clinical and Laboratory Standards Institute methods for susceptibility tests for bacteria that grow aerobically. Briefly, single bacterial colonies were used to inoculate 4 mL of Trypticase Soy broth (BD) for overnight growth and inoculum for each were diluted to 5×10^5 CFU/mL using the 0.5 McFarland standard. In a 96 well plate (Costar, round bottom), control antibiotics (oxacillin for SA and MRSA, vancomycin for EF and VRE, chloramphenicol for B. subtilis) or natural product inhibitors were added to Muller Hinton II broth (for S. aureus, MRSA, and B. subtilis) or 10% brain heart infusion broth (for E. faecium and VRE) in the first column of the well plates, and serially diluted across the plate, reserving wells for a positive growth control (no treatment). 10 μL of diluted bacteria were added to all wells with the exception of those kept for broth blanks (MHII or brain heart infusion broth only). Plates were incubated at 37° C. overnight and read at absorbance 600 nm on a Molecular Devices plate reader. Growth curves were plotted and ICso values obtained using Kalidagraph software.

[2] = system: vancomycin-resistant E. Faecium (VRE, ATCC 700221); experiment: Agar disk diffusion assay, VREF; type: cell-based, Enterococcus faecium
Experimental: as §1

[3] = system: Staphylococcus aureus (SA, ATCC 25923); experiment: Microbroth dilution assay, S. aureus; type: cell-based; details: concentration at which growth is reduced by 50%; for MIC50 (μg/mL) S. aureus: microbroth dilution
Experimental: as §1

[4] = system: Enterococcus faecium (EF, ATCC 49032); experiment: Microbroth dilution assay, E. faecium; type: cell-based; details: concentration at which growth is reduced by 50%
Experimental: as §1

[5] = system: vancomycin-resistant E. Faecium (VRE, ATCC 700221); experiment: Microbroth dilution assay, VREF; type: cell-based, Enterococcus faecium; details: microbroth dilution, concentration at which growth is reduced by 50%
Experimental: as §1

[6] = system: multidrug-resistant S. aureus (MDRSA, ATCC BAA-44); experiment: Microbroth dilution assay, MDRSA; type: cell-based; details: Staphylococcus aureus, ATCCBAA44
Experimental: (§2) Compounds 1-8 were tested for antimicrobial activity against Staphylococcus aureus (SA, ATCC 25923), methicillin-resistant S. aureus (MRSA, ATCC BAA-41), multidrug-resistant S. aureus (MDRSA, ATCC BAA-44), Enterococcus faecium (EF, ATCC 49032), vancomycin-resistant E. Faecium (VRE, ATCC 700221), and Bacillus subtilis (ATCC 49343) using a modified disk diffusion assay and microbroth liquid dilution assays. For disk diffusion assays, agar plates seeded with suspensions of bacteria were prepared by adding 500 μL of a 24 h culture of bacteria to 100 mL of autoclaved Mueller Hinton II agar and cooled to 55° C. Seeded liquid agar (10 mL) was transferred immediately to square Petri dishes and allowed to cool for 1 h. Control drugs used for each microorganism included kanamycin (50 μg) for S. aureus, and nitrofurantoin (25 μg) for MRSA. Following incubation at 37° C. for 18 h, zones of inhibition were measured. MICso values for compounds 1 and 4-8 were determined using a microbroth dilution assay outlined in the Clinical and Laboratory Standards Institute methods for susceptibility tests for bacteria that grow aerobically. […] Plates were incubated at 37° C. overnight and read at absorbance 600 nm on a Molecular Devices plate reader. […]

[7] = system: Bacillus subtilis (ATCC 49343); experiment: Microbroth dilution assay, B. subtilis; type: cell-based; details: ATCC49343
Experimental: as §2

tubulin = experiment: Tubulin polymerization assay; type: biochemical; details: for effect on tubulin polymerization: at 150 μM, 15 times its IC50 for FtsZ
[8] = system: human colon tumor cell line HCT-116; experiment: Cytotoxicity, HCT-116; type: cell-based; details: did not inhibit growth at concentrations as high as
recombinant E. coli FtsZ = recombinant E. coli FtsZ (Escherichia coli, UniProt P0A9A6); experiment: Saturation Transfer Difference (STD) NMR binding to FtsZ
recombinant E. coli FtsZ, sequence (P0A9A6 whole entry): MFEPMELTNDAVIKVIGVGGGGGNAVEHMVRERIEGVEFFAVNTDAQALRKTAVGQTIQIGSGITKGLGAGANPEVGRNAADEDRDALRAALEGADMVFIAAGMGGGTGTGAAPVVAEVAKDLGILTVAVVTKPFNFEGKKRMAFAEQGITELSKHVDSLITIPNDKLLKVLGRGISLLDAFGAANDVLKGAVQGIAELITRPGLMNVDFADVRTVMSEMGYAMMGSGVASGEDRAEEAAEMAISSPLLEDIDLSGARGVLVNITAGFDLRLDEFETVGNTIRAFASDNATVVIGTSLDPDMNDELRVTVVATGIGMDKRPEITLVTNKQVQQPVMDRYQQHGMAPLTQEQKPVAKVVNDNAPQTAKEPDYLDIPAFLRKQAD
Experimental: Saturation transfer difference (STD) NMR experiments were recorded with the carrier set at −1 or 12 ppm for on-resonance irradiation and at 40 ppm for off-resonance irradiation. […] Selective protein saturation (2 s) was accomplished by using a train of 50 ms Gauss-shaped pulses, each separated by a 1 ms delay, at an experimentally determined optimal power (49 dB on our probe); a T1ρ filter (30 ms) was incorporated to suppress protein resonances. Experiments were recorded using a minimum of 1024 scans and 32K points. On- and off-resonance spectra were processed independently, and subtracted to provide a difference spectrum.
Saturation Transfer Difference (STD) NMR is an NMR technique that provides atomic level detail of the epitope used by a small molecule ligand to bind its macromolecular (protein) receptor. […] Spectra of were recorded at 298 K with the carrier set at −1 or 12 ppm for on-resonance irradiation and 50 ppm for off-resonance irradiation. Selective protein saturation (duration ranging from 1 to 5 s) was accomplished using a train of 50 ms Gauss-shaped pulses, each separated by a 1 ms delay, at an experimentally determined optimal power (49 dB); a T1ρ filter (30 ms) was incorporated to suppress protein resonances. A minimum of 512 scans and 4000 points were used to ensure high quality data with good signal-to-noise. On- and off-resonance spectra were processed independently, and subtracted to provide a difference spectrum. […] STD enhancements were measured by integrating difference spectra where the peaks showing the strongest enhancements relative to the control spectra were used to normalize all non-overlapped peaks in the difference spectra.

GTP binding site of FtsZ = GTP binding site of FtsZ (Escherichia coli, UniProt P0A9A6); experiment: Competition STD NMR with GTPγS; set-up: species or system E. coli; details: for mode of binding relative to GTP/GTPγS: GTPγS titration 0.5-3.0 equivalents
GTP binding site of FtsZ, sequence (P0A9A6 whole entry, the tested form may be a part): as the sequence (P0A9A6 whole entry) above

[9] = system: Gram-positive pathogens (S. aureus, B. subtilis, E. faecium, MRSA, MDRSA, VREF); experiment: Disk diffusion and microbroth dilution assays, strains taken together; type: cell-based
From the text: Solid agar disk diffusion and microbroth dilution assays were used to evaluate the antimicrobial activities of compounds 1, hexaacetate 1a, and 4-8 toward clinically relevant, Gram-positive pathogens, including the drug-susceptible bacteria Staphylococcus aureus, Bacillus subtilis and Enterococcus faecium, and drug-resistant strains methicillin-resistant S. aureus (MRSA), multidrug-resistant S. aureus (MDRSA), and vancomycin-resistant E. faecium (VREF) (see Table 7, Example 2).
as §2, with “aerobically. Briefly, single bacterial colonies were used to inoculate 4 mL of Trypticase Soy broth (BD) for overnight growth and inoculum for each were diluted to 5×10^5 CFU/mL using the 0.5 McFarland standard.” for “aerobically.”

[10] = Lowest concentrations leading to 8-10 mm zones of inhibition
[11] = 100-fold excess of compound over FtsZ

Oc1cc(O)c2c(c1)C/C(Cl)=C\Cc1cc(c(Cl)cc1O)Oc1c(O)cc(cc1O)C/C(Cl)=C\Cc1cc(c(Cl)cc1O)O2 [Compound 1, chrysophaentin 1]
zone of inhibition at 2 µg/disc ([1]; Enterococcus faecium, ATCC49032, at 2 μg/disk): 10 mm | Agar disk diffusion (μg/disk) E. faecium [1, 10]: 2 μg/disk | zone of inhibition at 2 µg/disc ([2]; Enterococcus faecium, at 2 μg/disk): 10 mm | Agar disk diffusion (μg/disk) VREF [2, 10]: 2 μg/disk | MIC50 ([3]; Staphylococcus aureus, ATCC25923, microbroth dilution, read-out: MIC50 (μg/mL) S. aureus): 1.8 ± 0.6 µg/mL (≈ 2.65 µM) | MIC50 (μg/mL) S. aureus [3]: 1.8 ± 0.6 µg/mL (≈ 2.65 µM) | MIC50 (μg/mL) S. aureus ([3]; listed as chrysophaentin 1): 1.8 ± 0.6 µg/mL (≈ 2.65 µM) | MIC50 ([4]; Enterococcus faecium, ATCC49032, microbroth dilution, read-out: MIC50 (μg/mL) E. faecium): 3.8 ± 1.9 µg/mL (≈ 5.6 µM) | MIC50 (μg/mL) E. faecium ([4]; microbroth dilution): 3.5 ± 1.8 µg/mL (≈ 5.16 µM) | MIC50 ([5]; Enterococcus faecium, read-out: MIC50 (μg/mL) VREF): 2.9 ± 0.8 µg/mL (≈ 4.28 µM) | MIC50 (μg/mL) VREF [5]: 2.8 ± 0.8 µg/mL (≈ 4.13 µM) | MIC50 (μg/mL) VREF ([5]; listed as Chrysophaentin 1): 2.8 ± 0.8 µg/mL (≈ 4.13 µM) | MIC50 [6]: 1.3 ± 0.4 µg/mL (≈ 1.92 µM) | MIC50 [7]: 7.3 ± 3.7 µg/mL (≈ 10.8 µM) | selectivity for FtsZ over tubulin (tubulin): ≥ 15 fold | effect on tubulin polymerization (tubulin; listed as chrysophaentin 1): no effect; also recorded: does not affect | effect on tubulin polymerization (tubulin; listed as compound 1): no effect | tubulin polymerization velocity v (tubulin; chrysophaentin 1 at 150 μM, paclitaxel, nocodazole at standardized concentrations): 49 min⁻¹ | concentration without growth inhibition, HCT-116 [8]: > 50 µg/mL | STD NMR combined enhancement, overlapped protons H-6′ and H-8 (recombinant E. coli FtsZ; [11]): ~50% | STD NMR enhancement, proton H-3 (recombinant E. coli FtsZ; [11]): 100% | STD NMR enhancement, proton H-3′ (recombinant E. coli FtsZ; [11]): 98% | STD NMR enhancement, proton H-12 (recombinant E. coli FtsZ; [11]): 100% | STD NMR enhancement, proton H-14 (recombinant E. coli FtsZ; [11]): 100% | STD NMR enhancement, aromatic protons H-6 and H-6′ (recombinant E. coli FtsZ; as restated with the docked model): ~50% | decrease in STD NMR signal intensity of compound on addition of GTPγS (GTP binding site of FtsZ; 0.5 equivalents GTPγS (625 μM), 1.25 mM compound, 12.5 μM FtsZ): ~50% | mode of binding relative to GTP/GTPγS (GTP binding site of FtsZ; listed as chrysophaentin 1): in a competitive manner; also recorded: bind competitively | mode of binding relative to GTP/GTPγS (GTP binding site of FtsZ; listed as compound 1): competitive inhibitor of GTP binding to FtsZ | potency relative to chrysophaentin 6 [9]: 3-5 times
